Assay results reported in paper PMC7311461, “Cyclophilin D binds to the acidic C-terminus region of α-Synuclein and affects its aggregation characteristics” (Scientific Reports, 2020).
“Also recorded” adds a separate entry of the source.

How the values were obtained:
[1] = tested on: amyloid-β (Aβ); conditions: cited from earlier work
Source text: (§1) Proteins currently known to dissociate amyloid fibrils do so in either an ATP-dependent or –independent manner. Examples of the former include Hsp70, whereas the latter mode can be found in Cyclophilin 40 (Cyp40)[14],[15]. […] The effects of Cyp40 on the tau and αSyn fibrils were attributed to its peptidyl-prolyl isomerase activity. […] An emerging picture is that agents that prevent aggregation can also dissemble amyloid fibrils. […] Human Cyp40 is a multidomain protein consisting of the catalytic isomerase domain followed by four tetratricopeptide repeats. Through mutagenesis, the isomerase domain was identified as being responsible for this disaggregating activity[15] as is also shown here for CypD. CypD also interacts directly with the Alz ...

[2] = tested on: αSyn; conditions: cited from earlier work
Source text: While the aggregation processes are well studied the same is not true for disaggregation. […] EGCG binding to the C-terminus stabilises the αSyn monomeric state and shifts the monomer-fibril equilibrium towards the less aggregated forms. […] Human Cyp40 is a multidomain protein consisting of the catalytic isomerase domain followed by four tetratricopeptide repeats. Through mutagenesis, the isomerase domain was identified as being responsible for this disaggregating activity[15] as is also shown here for CypD. CypD also interacts directly with the Alz ...

[3] = tested on: αSyn; conditions: cited from earlier work; remark: listed apart in the source
Source text: as §1

[4] = tested on: αSyn effects on mitochondria / MPTP; conditions: cited from earlier work
Source text: Cyclophilin D (CypD) is a mitochondrial peptidyl-prolyl isomerase that has been implicated to be involved in the mechanisms of many diseases, although it is best known as a regulator for the opening of the mitochondria permeability transition pore (MPTP). […] Co-immunoprecipitation experiments ...

[5] = tested on: αSynC peptide (cis-trans isomerisation by CypD); test: NMR detection of αSynC cis-trans isomerisation (1D line-broadening, 2D NOESY exchange cross-peaks); assay type: biochemical; conditions: αSynC 1 mM, CypD 50uM, CsA 100uM, 283 K
Experimental: (§2) NMR spectra were acquired on Bruker Avance III 800 MHz spectrometer equipped with [^1H, ^15N, ^13C]-cryoprobes. 1D and 2D spectra of αSyn peptide were performed using 1 mM peptide dissolved in 20 mM phosphate, 20 mM NaCl pH 6.5 at 298 K or 283 K. Resonance assignments of the proton spectra of αSyn peptide were obtained using ^1H-^1H 2D TOCSY (mixing time 60 ms) and NOESY spectra (mixing time 350 ms). […] The same buffer was used for obtaining the ^1H-^15N spectra of ^15N-labelled αSyn at 298 K. Experiments using ^15N-labelled αSyn fibrils were performed at 288 K. ^2H/^15N-labelled CypD was used to make the complex with intact αSyn in order to achieve the optimal conditions to observe shift perturbations, taking into account the size of the complex (~32kD). Backbone ^1H and ^15N resonances of CypD and αSyn were assigned using standard triple resonance to those assigned by ^13C, ^15N, ^1H-triple resonance HNCA, HN(CO)CA, HNCO, HN(CA)CO, CBCA(CO)NH, and CBCANH experiments.

[6] = target: T1, CypD (Homo sapiens, UniProt P30405); test: Isothermal titration calorimetry, binding to CypD wild-type; conditions: 10°C, 20 mM phosphate, 20 mM NaCl, pH 6.5
T1 construct: His tag (TEV-cleavable, pETM11 vector) (cleaved yes); made in house; host or cells: E. coli BL21 (DE3)
Experimental: All ITC experiments were carried out at 10°C on an ITC200 Microcalorimeter (GE Healthcare). The buffer used was 20 mM phosphate, 20 mM NaCl at pH 6.5. Each experiment consisted of an initial injection of 0.5 µL, followed by fifteen 2.39 µL injections before a final injection of 1.89 µL. Control experiments were performed whereby each compound was titrated into buffer and buffer titrated into CypD. In both cases no heat exchange was detected, confirming that there was appropriate match of buffer conditions with no indication of dilution effects. The titration experiments were performed in duplicates, with 50-100 µM CypD in the cell and 500-2000 µM peptides in the syringe. For some of the titrations, data from two runs were concatenated to achieve a saturating isotherm. All data was analysed using the Origin®7 (OriginLab, Northampton, MA) software programme.

[7] = target: T1, CypD; test: Isomerisation substrate test by NMR; assay type: biochemical
Experimental: as §2

[8] = target: T1, CypD; test: 1H-15N HSQC NMR of 15N-CypD, binding site identification; conditions: 15N-CypD HSQC, 20-fold excess peptide; 20 mM phosphate, 20 mM NaCl, pH 6.5
Experimental: NMR spectra were acquired on Bruker Avance III 800 MHz spectrometer equipped with [^1H, ^15N, ^13C]-cryoprobes. […] The same buffer was used for obtaining the ^1H-^15N spectra of ^15N-labelled αSyn at 298 K. Experiments using ^15N-labelled αSyn fibrils were performed at 288 K. ^2H/^15N-labelled CypD was used to make the complex with intact αSyn in order to achieve the optimal conditions to observe shift perturbations, taking into account the size of the complex (~32kD). Backbone ^1H and ^15N resonances of CypD and αSyn were assigned using standard triple resonance to those assigned by ^13C, ^15N, ^1H-triple resonance HNCA, HN(CO)CA, HNCO, HN(CA)CO, CBCA(CO)NH, and CBCANH experiments.
In the analyses of the chemical shift perturbation, the chemical-shift difference was expressed as: Δδ = {(ΔH)^2 + (0.15ΔN)^2}^1/2. Values of Δδ greater than 0.07 were considered significant.

[9] = tested on: human insulin and human lysozyme; conditions: cited from earlier work
Source text: An emerging picture is that agents that prevent aggregation can also dissemble amyloid fibrils.

[10] = tested on: tau; conditions: cited from earlier work
Source text: Proteins currently known to dissociate amyloid fibrils do so in either an ATP-dependent or –independent manner. Examples of the former include Hsp70, whereas the latter mode can be found in Cyclophilin 40 (Cyp40)[14],[15]. […] The effects of Cyp40 on the tau and αSyn fibrils were attributed to its peptidyl-prolyl isomerase activity.

T1 sequence (P30405 43-207): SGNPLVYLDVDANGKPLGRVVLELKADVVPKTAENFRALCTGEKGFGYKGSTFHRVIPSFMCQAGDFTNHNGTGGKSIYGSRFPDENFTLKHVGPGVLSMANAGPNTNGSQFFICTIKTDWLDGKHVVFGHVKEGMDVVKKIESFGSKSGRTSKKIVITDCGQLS

## CC12CC3CC(C)(C1)CC(N)(C3)C2 [memantine]
[1]
  Aβ aggregation and preformed Aβ fibrils: inhibits Αβ aggregation; also recorded: disassembles preformed Aβ fibrils

## FKBP12: peptidyl-prolyl isomerase immunophilin protein belonging to the FKBP family, cytoplasmic
[2]
  binding to αSyn: shown to bind αSyn
[3]
  αSyn aggregation: promoted αSyn aggregation

## cyclosporine A [CsA]
[4]
  rescue of αSyn effects on mitochondria: can be rescued
[5]
  effect of CsA on exchange cross-peaks (CypD isomerase activity): exchange crosspeaks disappear
[5]; listed as Cyclosporine A
  effect of CsA on exchange cross-peaks (CypD isomerase activity): disappearance of the exchange cross-peaks

## GVATVAEKTKEQVTN [αSynM, synthetic peptide 51–65 of αSyn, >98% pure]
[6]
  binding to CypD (ITC, in words): too weak to yield a reliable binding isotherm; also recorded: binds much more weakly
[7]
  interaction with CypD / isomerisation substrate: not an isomerisation substrate of CypD
[8]
  binding to CypD by NMR (in words): only slightly shifted from the positions in the free protein with minimal broadening observed for selected peaks; also recorded: very weak binding

## Cyclophilin A: Cyclophilin A
[2]
  binding to αSyn: bind to αSyn, also at the C-terminus as well as to the preNAC sequence

## CC(CN1c2ccccc2Sc2ccccc21)N(C)C (centres unmarked) [promethazine]
[9]
  aggregation of human insulin and human lysozyme: prevents the aggregation of human insulin and human lysozyme; also recorded: depolymerises preformed fibrils

## C=CC[C@@H]1/C=C(\C)C[C@H](C)C[C@H](OC)[C@H]2O[C@@](O)(C(=O)C(=O)N3CCCC[C@H]3C(=O)O[C@H](/C(C)=C/[C@@H]3CC[C@@H](O)[C@H](OC)C3)[C@H](C)[C@@H](O)CC1=O)[C@H](C)C[C@@H]2OC [FK506]
[3]
  αSyn aggregation (FKBP inhibitor): prevent αSyn aggregation

## Cyp40: cytosolic peptidyl prolyl isomerase, co-chaperone to Hsp90
[1]; Aβ fibrils
  dissociation of fibrils: not amyloid-β (Aβ) fibrils
[3]; αSyn fibrils
  dissociation of fibrils: dissociate tau, and αSyn
[10]
  dissociation of fibrils: dissociate tau

## epigallocatechin-3-gallate [EGCG]
[2]
  binding to C-terminus of monomeric αSyn: binds to the C-terminus of monomeric αSyn
[3]
  dissociation of αSyn aggregates: dissociates αSyn aggregates
